The source made the active and inactive calls. The calls are words filed in the database; no cut-off is given here.
Tests used:
[1] = tested on: L1210; experiment: Ability to effect the replication of L1210 cells in vitro; format: functional; details: Mus musculus, read-out: ID50 (the source's name)
[2] = tested on: Mus musculus; experiment: Ratio of treated to that of control was determined in mice tested in vivo(on day 31); format: functional
[3] = Ability to effect the replication of S-180 cells in vitro; format: functional; details: Mus musculus, read-out: ID50 (the source's name)
[4] = tested on: L1210; experiment: Ability to effect the replication of L1210 cells in vitro; IN-Inactive; format: functional, cell-based; details: Mus musculus

SMILES	IC50 [1] [µM]	T/C [2] [%]	IC50 [3] [µM]	ID50 [4]
Nc1ccn([C@H]2C[C@H](N)[C@@H](CO)O2)c(=O)n1	0.7	283	4	–
N[C@H]1C[C@H](n2ccc(=O)[nH]c2=O)O[C@@H]1CO	18	–	50	–
[N-]=[N+]=N[C@H]1C[C@H](n2ccc(N)nc2=O)O[C@@H]1CO	–	–	–	inactive
[N-]=[N+]=N[C@H]1C[C@H](n2ccc(=O)[nH]c2=O)O[C@@H]1CO	–	–	–	inactive

Source: ChEMBL document CHEMBL1122361, “Synthesis and antineoplastic activity of 3'-azido and 3'-amino analogues of pyrimidine deoxyribonucleoside” (1983)
